Data set [1] in a line: Antiproliferative activity against human EU-1 cells assessed as inhibition of cell growth incubated for 48 hrs by WST assay. The data set is classed as functional, cell-based. The conditions noted are these: EU-1, 48 h.
Data set [2] deals with CFU-GM. Briefly: Inhibition of colony formation in human CFU-GM cells assessed as reduction in colony number and size at 1 uM incubated for 14 days by crystal violet staining based analysis. The data set is classed as toxicity, cell-based. The conditions noted are these: 336 h, time 14 day.
Data set [3] can be described thus: Inhibition of colony formation in human BFU-E cells assessed as reduction in colony number and size at 1 uM incubated for 14 days by crystal violet staining based analysis. The data set is classed as toxicity, cell-based. As to conditions: 336 h, time 14 day.
The subject of data set [4] is EU-1. Briefly: Inhibition of MDM2/XIAP IRES mRNA interaction in human EU-1 cells assessed as increase in caspase-3 cleavage at 5 uM measured for 24 hrs by western blot analysis. The data set is classed as cell-based. In general terms: In western blotting, separated proteins are transferred to a membrane and probed.
The test system of data set [5] is EU-1. In words: Inhibition of MDM2/XIAP IRES mRNA interaction in human EU-1 cells assessed as increase in caspase-9 cleavage at 5 uM measured for 24 hrs by western blot analysis. The data set is classed as cell-based.
Data set [6] relates to EU-1. Briefly: Inhibition of MDM2/XIAP IRES mRNA interaction in human EU-1 cells assessed as increase in PARP cleavage at 5 uM measured for 24 hrs by western blot analysis. The data set is classed as cell-based.

What is called IC50 is the concentration that gives 50% inhibition.

Calls of active or inactive are those of the source. The calls are words filed in the database; no cut-off is given here.

Turning to `COC(=O)c1ccc(C2Nc3ccc(S(=O)(=O)Nc4ccc(C)c(C)c4)cc3C3OCCCC23)cc1` (stereo unspecified), in data set [1], the IC50 was 4.6 µM.
Turning to `Cc1ccc(NS(=O)(=O)c2ccc3c(c2)C2OCCC2C(c2cccc4ccccc24)N3)cc1C` (stereo unspecified), the IC50 in data set [1] came to 6.1 µM.
As for `Cc1ccc(NS(=O)(=O)c2cc3c(cc2Cl)NC(c2ccc(S(C)(=O)=O)cc2)C2CC=CC32)cc1C` (stereo unspecified), the IC50 in data set [1] was over 50 µM.
`Cc1ccc(NS(=O)(=O)c2ccc3c(c2)[C@@H]2OCC[C@@H]2[C@H](c2ccc(C(=O)C(C)C)cc2)N3)cc1C`: in data set [1], the IC50 was found to be 1.6 µM.
The same measure, in the same setting: to `Cc1ccc(NS(=O)(=O)c2ccc3c(c2)[C@H]2OCC[C@H]2[C@@H](c2ccc(C(=O)C(C)C)cc2)N3)cc1C` belongs 0.3 µM; to `Cc1ccc(NS(=O)(=O)c2ccc3c(c2)C2CCCC2C(c2ccc(C(=O)C(C)C)cc2)N3)cc1C` (stereo unspecified), 7 µM.
On the same count and under the same terms, next, `Cc1ccc(NS(=O)(=O)c2ccc3c(c2)C2NCCC2C(c2ccc(C(=O)C(C)C)cc2)N3)cc1C` (stereo unspecified): 3.8 µM; `Cc1ccc(NS(=O)(=O)c2ccc3c(c2)C2OCCC2C(c2ccc(C(C)C)cc2)N3)cc1C` (stereo unspecified): 4.2 µM; `Cc1ccc(NS(=O)(=O)c2ccc3c(c2)C2OCCC2C(c2ccc(C(=O)C4CCCCC4)cc2)N3)cc1C` (stereo unspecified): 3.1 µM.
Same read-out and setting: to `CCCC(=O)c1ccc(C2Nc3ccc(S(=O)(=O)Nc4ccc(C)c(C)c4)cc3C3OCCC23)cc1` (stereo unspecified) belongs 2.9 µM.
For `Cc1ccc(NS(=O)(=O)c2ccc3c(c2)C2OCCC2C(c2ccc(C(=O)O)cc2)N3)cc1C` (stereo unspecified), in data set [1], the IC50 is over 50 µM.
On the same count and under the same terms, next, `Cc1ccc(NS(=O)(=O)c2ccc3c(c2)C2OCCC2C(c2ccc(C(=O)C4CC4)cc2)N3)cc1C` (stereo unspecified): 5.2 µM.
In the case of `Cc1ccc(NS(=O)(=O)c2ccc3c(c2)[C@H]2OCC[C@H]2[C@H](c2ccc(C(=O)C(C)C)cc2)N3)cc1C`, in data set [1], the half-maximal inhibitory concentration (IC50) is 2.4 µM.
Same read-out and setting: next, `Cc1ccc(NS(=O)(=O)c2ccc3c(c2)C2C=CCC2C(c2ccc(C(=O)C(C)C)cc2)N3)cc1C` (stereo unspecified): 2.7 µM.
`COc1cccc2c1C(=O)c1c(O)c3c(c(O)c1C2=O)C[C@@](O)(C(=O)CO)C[C@@H]3O[C@H]1C[C@H](N)[C@H](O)[C@H](C)O1` [DOXORUBICIN]: the Activity entry in data set [2] and in data set [3] was “Toxic” each time.
In the case of `CC(C)C(=O)c1ccc(C2Nc3ccc(S(=O)(=O)Nc4ccc(Cl)c(Cl)c4)cc3C3OCCC23)cc1` (stereo unspecified), in data set [1], the IC50 was 5.6 µM.
For the compound `CC(C)C(=O)c1ccc(C2Nc3ccc(S(=O)(=O)Nc4ccccc4)cc3C3OCCC23)cc1` (stereo unspecified), the IC50 in data set [1] came to 3.2 µM.
On the same count and under the same terms, to `Cc1cc(NS(=O)(=O)c2ccc3c(c2)C2OCCC2C(c2ccc(C(=O)C(C)C)cc2)N3)ccc1Cl` (stereo unspecified) belongs 6.3 µM.
As for `Cc1ccc(NS(=O)(=O)c2ccc3c(c2)C2C=CCC2C(c2ccc(S(C)(=O)=O)cc2)N3)cc1C` (stereo unspecified), the IC50 in data set [1] was 6.2 µM.
Still for that read-out and setting: to `Cc1cc(NS(=O)(=O)c2ccc3c(c2)C2OCCC2C(c2ccc(C(=O)C(C)C)cc2)N3)ccc1C(F)(F)F` (stereo unspecified) belongs 7.2 µM; to `COC(=O)c1ccc(C2Nc3ccc(S(=O)(=O)Nc4ccc(C)c(C)c4)cc3C3NCCC23)cc1` (stereo unspecified), 3.5 µM.
Same read-out and setting: to `Cc1ccc(N(C)S(=O)(=O)c2ccc3c(c2)C2OCCC2C(c2ccc(C(=O)C(C)C)cc2)N3)cc1C` (stereo unspecified) belongs 1.6 µM.
The same measure, in the same setting: next, `Cc1ccc(NS(=O)(=O)c2ccc3c(c2)C2OCCC2C(c2ccc(C(=O)C(C)C)cc2)N3)cc1Cl` (stereo unspecified): 1.6 µM.
With `Cc1cccc(NS(=O)(=O)c2ccc3c(c2)C2OCCC2C(c2ccc(C(=O)C(C)C)cc2)N3)c1` (stereo unspecified), the concentration for half-maximal inhibition (IC50) in data set [1] came out at 1.4 µM.
As for `Cc1ccc(NS(=O)(=O)c2ccc3c(c2Cl)C2C=CCC2C(c2ccc(S(C)(=O)=O)cc2)N3)cc1C` (stereo unspecified), the IC50 in data set [1] amounted to 23.4 µM.
The same measure, in the same setting: to `Cc1ccc(NS(=O)(=O)c2ccc3c(c2)C2OCCC2C(c2ccc(C(O)C(C)C)cc2)N3)cc1C` (stereo unspecified) belongs 2 µM.
For the compound `CC(=O)c1ccc(C2Nc3ccc(S(=O)(=O)Nc4ccc(C)c(C)c4)cc3C3OCCC23)cc1` (stereo unspecified), the IC50 in data set [1] turned out to be 0.5 µM.
Same read-out and setting: next, `Cc1ccc(NS(=O)(=O)c2ccc3c(c2)C2OCCC2C(c2cccc(C(=O)C(C)C)c2)N3)cc1C` (stereo unspecified): 3.6 µM.
Same read-out and setting: next, `Cc1ccc(NS(=O)(=O)c2ccc3c(c2)C2OCCC2C(c2ccc(C(=O)C(C)C)cc2)N3)cc1` (stereo unspecified): 3.3 µM; `Cc1ccc(NS(=O)(=O)c2ccc3c(c2)C2OCCC2C(c2ccc(Br)cc2)N3)cc1C` (stereo unspecified): 3.6 µM.
Same read-out and setting: to `COC(=O)c1ccc(C2Nc3c(Cl)cc(S(=O)(=O)Nc4ccc(C)c(C)c4)cc3C3OCCC23)cc1` (stereo unspecified) belongs over 50 µM; to `Cc1ccc(NS(=O)(=O)c2ccc3c(c2)C2OCCCC2C(c2ccc(C(=O)O)cc2)N3)cc1C` (stereo unspecified), over 50 µM.
As for `COC(=O)c1ccc(C2Nc3ccc(S(=O)(=O)Nc4ccc(C)c(C)c4)cc3C3OCCC23)cc1` (stereo unspecified), the IC50 in data set [1] came to 2.2 µM.
Take `Cc1ccc(NS(=O)(=O)c2ccc3c(c2)C2C=CCC2C(c2ccc(C(=O)O)cc2)N3)cc1C` (stereo unspecified): the IC50 in data set [1] amounted to 7.5 µM. Besides, the inhibition entry in data set [4], in data set [5] and in data set [6] was “Active” in each case.
As to `CC(C)C(=O)c1ccc(C2Nc3ccc(S(=O)(=O)Nc4ccc(Br)c(Br)c4)cc3C3OCCC23)cc1` (stereo unspecified), the IC50 in data set [1] came to 5.2 µM.
Same read-out and setting: to `Cc1ccc(NS(=O)(=O)c2ccc3c(c2)[C@@H]2OCC[C@@H]2[C@@H](c2ccc(C(=O)C(C)C)cc2)N3)cc1C` belongs 1.9 µM.
Same read-out and setting: to `COC(=O)c1ccc(C2Nc3ccc(S(=O)(=O)Nc4ccc(C)c(C)c4)cc3C3c4ccccc4CC23)cc1` (stereo unspecified) belongs 18.3 µM; to `Cc1ccc(NS(=O)(=O)c2ccc3c(c2)C2c4ccccc4CC2C(c2ccc(C(=O)O)cc2)N3)cc1C` (stereo unspecified), 20.5 µM.
On to `COC(=O)c1ccc(C2Nc3ccc(S(=O)(=O)Nc4ccc(C)c(C)c4)cc3C3C=CCC32)cc1` (stereo unspecified), for which the IC50 in data set [1] amounted to 4.7 µM.
On to `Cc1ccc(NS(=O)(=O)c2ccc3c(c2)C2OCCC2C(c2ccc(S(C)(=O)=O)cc2)N3)cc1C` (stereo unspecified), for which the IC50 in data set [1] was found to be 4.1 µM.
Same read-out and setting: next, `Cc1ccc(NS(=O)(=O)c2ccc3c(c2)C2NCCC2C(c2ccc(C(=O)O)cc2)N3)cc1C` (stereo unspecified): over 50 µM; `COC(=O)c1ccc(C2Nc3cc(Cl)c(S(=O)(=O)Nc4ccc(C)c(C)c4)cc3C3OCCC23)cc1` (stereo unspecified): over 50 µM; `C=CC(=O)c1ccc(C2Nc3ccc(S(=O)(=O)Nc4ccc(C)c(C)c4)cc3C3OCCC23)cc1` (stereo unspecified): 30 µM.
On the same count and under the same terms, next, `Cc1cc(NS(=O)(=O)c2ccc3c(c2)C2OCCC2C(c2ccc(C(=O)C(C)C)cc2)N3)ccc1F` (stereo unspecified): 2.9 µM; `Cc1ccc(N(C)S(=O)(=O)c2ccc3c(c2)C2OCCC2C(c2ccc(C(=O)C(C)C)cc2)N3C)cc1C` (stereo unspecified): 1.2 µM; `CC(=O)c1cccc(C2Nc3ccc(S(=O)(=O)Nc4ccc(C)c(C)c4)cc3C3OCCC23)c1` (stereo unspecified): 2 µM.
Consider `Cc1ccc(NS(=O)(=O)c2ccc3c(c2)C2OCCC2C(c2ccc(C(=O)c4ccccc4)cc2)N3)cc1C` (stereo unspecified), for which, in data set [1], the IC50 is 3.2 µM.

These data come from ChEMBL document CHEMBL5149970 (J Med Chem, 2021).
